{"source": "paper PMC8006131", "about": "“Pulse Dipolar EPR Reveals Double-Histidine Motif Cu^II−NTA Spin-Labeling Robustness against Competitor Ions” (The journal of physical chemistry letters, 2021)", "key": {"I6R1/K28H/Q32H GB1 [1]": {"biological_target": "T1, I6R1/K28H/Q32H GB1 (Streptococcus sp. group G, UniProt P06654, I232C/K254H/Q258H)", "T1 construct": "MTSL nitroxide spin label on Cys6 (R1 side chain); made in house", "test": "Zn^II–NTA competitor RIDME pseudotitration (competition assay in presence of Cu^II–NTA)", "assay_type": "binding", "details": "low μM protein concentration", "procedure": "The corresponding RIDME pseudotitration was performed at 1 μM protein concentration in the presence of 10 μM Cu^II– NTA (to ensure quantitative loading at the double histidine motif prior to addition of competitor ligand (see SI section 1.6)) and varying Zn^II–NTA concentrations. […] Additionally, this benchmarks quantitation of Cu^II-nitroxide RIDME modulation depths for remotely determining binding affinities of EPR silent ligands, in a competition assay format.\n(§1) I Experimental Procedures:\n(§2) 1.1 Construct Design, Expression and Purification:\n(§3) Constructs of Streptococcus sp. group G, protein G B1 domain (GB1) were designed, expressed and purified as previously described.1,2 For completeness the protein sequences for the K28H/Q32H and I6C/K28H/Q32H GB1 constructs are given below in figures S1 and S2, respectively. The positions of the cysteine and double-histidine motif are indicated in cyan and green, respectively.\n(§4) K28H/Q32H GB1 Protein Sequence:\n(§5) Figure S1. Full amino-acid sequence for the K28H/Q32H GB1 construct used in this work, with each histidine residue of the double-histidine motif shown in green; and residue number indicated above the sequence.\n(§6) I6C/K28H/Q32H GB1 Protein Sequence:\nFigure S2. […]"}, "6R1/28H/32H GB1": {"biological_target": "6R1/28H/32H GB1", "parameters": "method as in earlier work", "details": "pH 7.4; 75 μM protein, 2 mM CuII-NTA; cited from earlier work"}, "I6R1/K28H/Q32H GB1 [2]": {"biological_target": "T1, I6R1/K28H/Q32H GB1", "test": "Cu^II-nitroxide RIDME pseudotitration (pulse dipolar EPR)", "assay_type": "binding", "details": "for Kd: read-out: fitted dissociation constant (bivariate fit)", "text": "as §1, §2, §3, §4, §5, §6\nFigure S2. Full amino-acid sequence for the I6C/K28H/Q32H GB1 construct used in this work, with the cysteine residue shown in cyan and each histidine residue of the double-histidine motif shown in green; and residue numbers indicated […]\n1.2 Pulse EPR Sample Preparation:\nAll material was exchanged into pH-adjusted deuterated buffer A (42.4 mM Na2HPO4, 7.6 mM KH2PO4, 150 mM NaCl) by first freeze-drying and then re-dissolving in D2O. For Q-band RIDME samples of 6R1/28H/32H GB1, a total volume of 70 μL was used, with protein concentrations of 1, 2, or 5 μM as stated. All EPR samples were frozen by direct immersion into liquid nitrogen. ZnII-NTA and CuII-NTA stock solutions were prepared as previously described1,3; and for labelling, ZnII-NTA and CuII-NTA stock solutions with nominal concentrations of 100 and 10 mM were used, […]\n1.3 Metal Chelate Spin Label Preparation:\nFor preparation of all metal-NTA labels: CuII-NTA, and ZnII-NTA, , ZnCl2, CuCl2 and NTA were weighed in a glove-box and aliquoted into 1.5 mL reaction tubes. Stock solutions of 100 mM were prepared as previously described.3 Complete dissolution was ensured by vortexing until solutions were clear […]\nof precipitate. […]\n1.5 Pulse EPR Measurements:\nAll pulse EPR experiments were performed using a Bruker ELEXSYS 580 pulse EPR spectrometer.\nTemperatures were maintained using a cryogen-free variable temperature cryostat (Cryogenic Ltd) operating in the 1.8-300 K temperature range. All measurements of the electron spin longitudinal relaxation times (T1) of CuII-NTA, and all 5-pulse dead-time free RIDME measurements4 were performed at 30 K, using a high-power 150 W travelling-wave tube (TWT; Applied Systems […]\nan SRT of 2 ms, with 2560 points, 25 shots-per-point, and 1-5 scans, as stated. A τ of 800 ns was used, with an approximate time-window length of […], incremented in steps of 200 ns.\n1.6 Competitive Binding Model:\nLet us begin by considering a binding equilibrium in presence of a competitor ligand (A), with the following two approximations: i) the binding of the ligand (L) and (A) to a protein (P) is mutually exclusive, and ii) the competitor (A) binds to (P) weakly with respect to (L). Here we can define a dissociation constant for both the ligand (KDL) and for the competitor (KDA), given in (S1) and (S2) […]\nRearranging (S1) and (S2) for equilibrium concentrations of protein and protein-competitor complex, given as [P] and [PA] respectively, yields (S3) and (S4):\nHere, an expression for total protein, [P]0, can be defined:\nSubstitution of (S3) and (S4) into (S5) yields (S6):\nSymbolic substitution and rearrangement of (S6) to solve for [PL] yields (S7): […]"}, "I6R1/K28H/Q32H GB1 [3]": {"biological_target": "T1, I6R1/K28H/Q32H GB1", "details": "pH 7.4; previous work; read-out: fitted dissociation constant; cited from earlier work"}, "K28H/Q32H GB1": {"biological_target": "T2, K28H/Q32H GB1 (Streptococcus sp. group G, UniProt P06654, K254H/Q258H)", "T2 construct": "made in house", "test": "Isothermal titration calorimetry (ITC) at 298 K, single-site binding model", "procedure": "seconds between injections, at 298 K. All solutions were degassed before the use and the final samples were centrifuged immediately before measurements. For the ZnII-NTA measurements, K28H/Q32H GB1 concentration was 800 μΜ, and titrant concentration was 12 mM. For the variable pH measurements, K28H/Q32H GB1 concentration was 75 μM and titrant concentration was 2.5 mM. Blank conditions of either buffer A (42.4 mM Na2HPO4, 7.6 mM KH2PO4, 150 mM NaCl, pH 7.4) titrated against addition of 12 mM titrant, or pH adjusted buffer A titrated against addition of 1.0 or 2.0 mM titrant, were recorded for the competitor and variable pH ITC measurements, respectively.\nSubtraction of the blank measurements from the raw data mitigated the heat of dilution. All data analyses were performed in MicroCal Origin 7 (OriginLab, Northampton, MA) and thermodynamic parameters were derived using standard Marquardt fitting of a single-site binding model, as in our previous work.1 The fitted equation is given as:\nWhere: 3($) is the heat content of the solution at the point of the <th injection, is the binding constant, 4 is the stoichiometry of binding, =7 is the molar heat of ligand binding, 8 is the active cell volume, 56 is the total concentration of macromolecule contained in 8 , :6 is the total concentration of ligand contained in 8 .\n1.8 UV-visible Spectroscopy:\nAll UV-visible absorbance spectra were recorded using a Jenway 67 series UV-vis spectrophotometer, in plastic cuvettes with a path length of 10 mm, in single-beam mode. All spectra are recorded at ambient temperature, and with a wavelength resolution of 1 nm, in the wavelength range 320-800 nm. Each sample was blanked before measurement, and all were repeated in triplicate. Data was processed using the Jenway 67-series software suite, and were exported to ASCII format for plotting and analysis in Matlab. For quantitation of CuII-IDA and CuII-NTA concentration, molar extinction coefficients of 62 M-1 cm-1 and 59 M-1cm-1 at 726 nm, and 800 nm were used, respectively, taken from previous literature.1,11"}, "[4]": {"details": "pH 6.4, 298 K, listed as CuII-NTA"}}, "note": "“And” between values parts separate entries of the source, which are not always exact repeats. Identical values can stand only once. Like-named read-outs stand apart in the source and are kept apart here.", "data": [{"smiles": "O=C([O-])CN(CC(=O)[O-])CC(=O)[O-].[Cu+2]", "note": "[Cu^II–NTA, Cu^II-nitrilotriacetic acid]", "values": [{"measurement": "robust against Zn^II–NTA competitor ligand in molar excess", "setting": "I6R1/K28H/Q32H GB1 [1]", "result": "> 1000", "unit": "fold"}, {"measurement": "Kd", "setting": "6R1/28H/32H GB1", "result": 5, "unit": "µM"}, {"measurement": "affinity reduction compared to pH 7.4", "setting": "I6R1/K28H/Q32H GB1 [2]; pH 6.4", "result": 2, "unit": "fold"}, {"measurement": "available double-histidine motifs saturated", "setting": "I6R1/K28H/Q32H GB1 [2]; pH 6.4, 5 μM protein, 1 equiv of Cu^II–NTA", "result": "~70", "unit": "%"}, {"measurement": "Kd", "setting": "I6R1/K28H/Q32H GB1 [2]; pH 6.4, 5 μM protein", "result": "0.31 µM and 0.308 µM"}, {"measurement": "binding affinity higher than at pH 7.4", "setting": "I6R1/K28H/Q32H GB1 [2]; pH 8.4", "result": "approximately 2 fold"}, {"measurement": "Kd", "setting": "I6R1/K28H/Q32H GB1 [2]; pH 8.4, 2 μM protein", "result": 0.091, "unit": "µM"}, {"measurement": "Kd", "setting": "I6R1/K28H/Q32H GB1 [3]", "result": 0.14, "unit": "µM"}, {"measurement": "binding at the double-histidine motif", "setting": "K28H/Q32H GB1; pH 5.0, 298 K, 75 μM protein, 2 mM Cu^II–NTA", "result": "negligible binding"}, {"measurement": "Wiseman factor", "setting": "K28H/Q32H GB1; pH 6.4", "result": 0.76}, {"measurement": "n (stoichiometry of binding)", "setting": "K28H/Q32H GB1; pH 6.4, 298 K", "result": "~ 1"}, {"measurement": "ΔH", "setting": "K28H/Q32H GB1; pH 6.4, 298 K", "result": -6.9, "unit": "kcal/mol"}, {"measurement": "n (stoichiometry of binding)", "setting": "K28H/Q32H GB1; [4]", "result": 0.97}, {"measurement": "ΔH", "setting": "K28H/Q32H GB1; [4]", "result": -6.94, "unit": "kcal/mol"}, {"measurement": "Kd", "setting": "K28H/Q32H GB1; pH 6.4, 298 K, read-out: KD", "result": 98.6, "unit": "µM"}, {"measurement": "Kd", "setting": "K28H/Q32H GB1; pH 6.4, ΔH extrapolated to 235 K, listed as CuII-NTA, read-out: Predicted KD at 235 K", "result": 4.26, "unit": "µM"}, {"measurement": "Kd", "setting": "K28H/Q32H GB1; pH 6.4, ΔH extrapolated to 235 K, read-out: Predicted KD at 235 K", "result": "~4", "unit": "µM"}, {"measurement": "Wiseman factor", "setting": "K28H/Q32H GB1; pH 8.4", "result": 9.42}, {"measurement": "n (stoichiometry of binding)", "setting": "K28H/Q32H GB1; pH 8.4, 298 K", "result": "~ 2"}, {"measurement": "ΔH", "setting": "K28H/Q32H GB1; pH 8.4, 298 K", "result": -15.2, "unit": "kcal/mol"}, {"measurement": "n (stoichiometry of binding)", "setting": "K28H/Q32H GB1; pH 8.4, 298 K, listed as CuII-NTA", "result": 2.04}, {"measurement": "Kd", "setting": "K28H/Q32H GB1; pH 8.4, 298 K, listed as CuII-NTA, read-out: KD", "result": 7.96, "unit": "µM"}, {"measurement": "Kd", "setting": "K28H/Q32H GB1; pH 8.4, 298 K, read-out: KD", "result": 8, "unit": "µM"}, {"measurement": "predicted increase in affinity compared to previous work", "setting": "K28H/Q32H GB1; pH 8.4, predicted from room-temperature ITC", "result": 20, "unit": "fold"}, {"measurement": "Wiseman factor", "setting": "K28H/Q32H GB1; pH 9.0", "result": 3.00}, {"measurement": "ΔH", "setting": "K28H/Q32H GB1; pH 9.0, 298 K", "result": -2.92, "unit": "kcal/mol"}, {"measurement": "n (stoichiometry of binding)", "setting": "K28H/Q32H GB1; pH 9.0, 298 K, 1 mM CuII-NTA", "result": 0.94}, {"measurement": "Kd", "setting": "K28H/Q32H GB1; pH 9.0, 298 K, read-out: KD", "result": 25, "unit": "µM"}, {"measurement": "Kd", "setting": "K28H/Q32H GB1; pH 9.0, read-out: Predicted KD at 235 K", "result": 6.67, "unit": "µM"}]}]}
